Among the test systems are BT-549 breast; LOX IMVI melanoma; ACHN renal; MCF7 breast; SR leukemia; COLO 205 colon; 786-0 renal; HOP-92 NSCLC; NCI-H522 lung; MDA-MB-231 breast.
What all share (experiment): NCI anticancer screen, dose series, 48 h

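48-hour exposure; five concentrations; linearly interpolated endpoints. GI50: concentration for 50% inhibition of growth. Definition used: TGI = concentration required for complete inhibition of growth.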

As for `COc1cccc(/C(C)=N/NC(=O)CSc2nc3ccccc3c(=O)n2CCc2ccc(S(N)(=O)=O)cc2)c1`, the GI50 with BT-549 breast is 2.27 µM; with LOX IMVI melanoma it was 3.1 µM; in the experiment on ACHN renal, 3.19 µM; in the experiment on MCF7 breast, 3.14 µM; in the experiment with SR leukemia, 0.481 µM; in the experiment on COLO 205 colon, 4.13 µM. For the same molecule, the GI50 in the experiment with 786-0 renal is 1.47 µM; with HOP-92 NSCLC it was 1.95 µM; in the experiment with NCI-H522 lung, 2.66 µM; in the experiment with MDA-MB-231 breast, 2.23 µM. In addition, the TGI in the experiment on BT-549 breast is 40.9 µM; in the experiment on LOX IMVI melanoma, 11.7 µM; with ACHN renal, 15.9 µM; in the experiment on MCF7 breast it was 15.4 µM; in the experiment on SR leukemia, > 100 µM; in the experiment with COLO 205 colon, 21.1 µM. The TGI is 3.95 µM in the experiment on 786-0 renal, 11.9 µM in the experiment with HOP-92 NSCLC, 9.65 µM in the experiment on NCI-H522 lung and 5.06 µM in the experiment on MDA-MB-231 breast.

`Nc1nc(=O)n([C@@H]2CS[C@H](CO)O2)cc1F`: the GI50 in the experiment on BT-549 breast, with LOX IMVI melanoma, with ACHN renal, with MCF7 breast, in the experiment with SR leukemia and in the experiment with COLO 205 colon was > 100 µM each time. The GI50 with 786-0 renal, in the experiment on HOP-92 NSCLC, with NCI-H522 lung and in the experiment on MDA-MB-231 breast was > 100 µM in each case. Further, the TGI in the experiment on BT-549 breast, with LOX IMVI melanoma, in the experiment with ACHN renal, in the experiment on MCF7 breast, in the experiment on SR leukemia and with COLO 205 colon was > 100 µM in each case. The TGI in the experiment with 786-0 renal, in the experiment with HOP-92 NSCLC, in the experiment with NCI-H522 lung and in the experiment with MDA-MB-231 breast was > 100 µM throughout.

Source of the values: PubChem BioAssay (NCI).
